Tested on: male Wistar rats, hypothermia induced by the D3 dopaminergic agonist 7-OH-DPAT
Test: Hypothermia in the rat induced by the D3 agonist 7-OH-DPAT (reversal test)
Format: in vivo
Conditions: for ΔT°C. (rectal temperature vs base values): measured 30 min after, mean ± sem, n ≥ 5
From the text: That selectivity makes the compounds of the present invention valuable especially for use as medicaments that act on the dopaminergic system without causing the undesirable effects of D2 ligands.
In vivo: by the capacity of the products of the invention to modulate hypothermia induced in the rat by the D3 dopaminergic agonist: 7-OH-DPAT.
1.2 In vivo - Hypothermia in the rat
The tests were carded out on male Wistar rats weighing 200-250 g placed in individual cages with free access to food and water. The products were dissolved in distilled water to which several drops of lactic acid are added. The injections were effected in a volume of 1.0 ml/kg by the subcutaneous route. The doses are expressed in terms of the base. The rectal temperature of the rats was recorded using a digital thermistoprobe (Millan et al, I.P.E.T., 1993, 264, p. 1364-1376). During a first period, the rats were injected with the compound to be tested or the carrier, and were then put back in their cages for 30 minutes. The rats were then given an injection of 7-OH-DPAT (0.16 mg/kg) and were placed in their cages again. Thirty minutes later, the rectal temperature was measured and the difference was determined by comparison with the base values (.increment.T° C.). The inhibitory dose (95 % confidence limits) for reducing the effect of the 7-OH-DPAT by 50 % was calculated according to the Finney method (Statistical Method in Biological Assays, 2nd ed., Hafner Publishing, New York, 1964).

## CCCN1CCO[C@@H]2c3cc4c(cc3CC[C@H]21)CCS4 (relative stereo) [Example 2, Trans-3,4,4a,5,6,8,9,11b-octahydrothieno[2,3-b]-1,4-oxazino[3,2-h]-4-propyl-2H-naphthalene]
Rattus norvegicus, sc, 7-OH-DPAT 0.16 mg/kg, Finney method, 95 % confidence limits in brackets, read-out: inhibitory dose (ID50) (95 % C.L.) for reducing the effect of 7-OH-DPAT by 50 %
  ED50: 0.41 mg/kg
Injection 1: product 0.16 mg/kg s.c., injection 2: 7-OH-DPAT 0.16 mg/kg 30 min later
  ΔT°C. (rectal temperature vs base values): -1.48 ± 0.44 °C

## CCCN(CCC)C1CCc2ccc(O)cc2C1 (stereo not drawn) [Example 7-OH-DPAT, reference compound]
Injection 1: carrier, injection 2: 7-OH-DPAT 0.16 mg/kg s.c.
  ΔT°C. (rectal temperature vs base values): -1.66 ± 0.07 °C
